From patent US20260115202A1, “TOPICAL COMPOSITIONS COMPRISING AN ESTETROL COMPONENT AND USE OF SAID COMPOSITIONS FOR WOUND HEALING” (NEURALIS SA, priority 2022, published 2026)
“Also recorded” adds a separate entry of the source.

What was measured:
[1] = test system: murine peritoneal macrophages; experiment: M1-polarised freshly isolated murine peritoneal macrophages, qPCR of M1 markers; format: cell-based, mouse; details: peritoneal macrophages pre-treated at 10^−7M, M1 polarised 6 hours; for expression of M1 markers (iNOS, IL1-β, Tnf-α): versus vehicle
Description: Peritoneal macrophages from C57/B16 mice were isolated by peritoneal lavage. The peritoneal cavity of euthanised mice were filled with 5 ml ice cold PBS supplemented with 3% FBS. Cell-containing lavage fluid was removed using a needle and syringe and cells seeded into 12- or 6-well plates at 1×10^6 cells/ml in RPM1 growth medium supplemented with 10% charcoal-stripped FBS and 1% penicillin/streptomycin, were treated with 10^-7M E2 or E4 in serum free growth medium for 16 hours and polarised to M1-type cells using 100 ng/ml IFN-γ and 1 μg/ml LPS. Following 6- or 24-hours polarisation cells were collected for RNA isolation or flow cytometry. Following treatments, human and murine macrophages were collected in Trizol and RNA isolated using the Trizol plus RNA isolation kit (Invitrogen. Thermo Fisher) according to the manufacturer's instructions. RNA was reverse transcribed to cDNA using GoScript reverse transcriptase (Promega). Quantitative real-time PCR was carried out using 2×Takyon SYBR Green mastermix and a CFX Connect thermocycler. Primers for ERα and ERβ were used to explore changes in ER expression after treatment of MEK and MDF with E2 and E4. To investigate the effect of E2 and E4 on MEK differentiation and the expression of ECM proteins by MDF, primers for. Snail, keratin-1 and fibronectin, collagen I. MMP-2 and MMP-9 were used. Primers for INOS. IL-1B and Tnf-α or Ccl17 were used to assess M1/M2 polarisation status. Primers for GAPDH were used to normalise data. Relative gene expression was set to vehicle controls or M0 expression unless otherwise stated. Finally, the anti-inflammatory effects E2 and E4 were evaluated in freshly isolated murine peritoneal macrophages. Unlike the BMDM protocol, the already differentiated peritoneal macrophages were immediately pre-treated with E2 (10^−7M) or E4 (10^−7M), followed by M1 polarisation using IFN-γ and LPS for 6 hours. […] Note, the overall level of marker expression was higher in these cells. […] The observed anti-inflammatory effects of E4 were broadly similar to those observed for E2.

[2] = test system: mouse bone marrow derived macrophages (BMDM); experiment: M1-polarised murine bone marrow derived macrophages, qPCR of M1 markers; format: cell-based; details: for relative iNOS expression (M1 cell phenotype): formulations and E2/E4
Description: Bones were flushed with DMEM supplemented with 1% penicillin/streptomycin and 1% amphotericin B. Bone marrow cells were seeded into 12- or 6-well plates at 1×10^6 cells/ml in DMEM supplemented with 10% FBS and 10% L929-conditioned medium to induce differentiation. After 7-10 days, differentiated macrophages were treated with 10^−7M E2 or E4 in serum free growth medium for 16 hours and polarised to M1-type cells using 100 ng/ml IFN-γ and 1 μg/ml LPS. Following 6- or 24-hours polarisation cells were collected for RNA isolation or flow cytometry.
Following treatments, human and murine macrophages were collected in Trizol and RNA isolated using the Trizol plus RNA isolation kit (Invitrogen. Thermo Fisher) according to the manufacturer's instructions. RNA was reverse transcribed to cDNA using GoScript reverse transcriptase (Promega). Quantitative real-time PCR was carried out using 2×Takyon SYBR Green mastermix and a CFX Connect thermocycler. Primers for ERα and ERβ were used to explore changes in ER expression after treatment of MEK and MDF with E2 and E4. To investigate the effect of E2 and E4 on MEK differentiation and the expression of ECM proteins by MDF, primers for. Snail, keratin-1 and fibronectin, collagen I. MMP-2 and MMP-9 were used. Primers for INOS. IL-1B and Tnf-α or Ccl17 were used to assess M1/M2 polarisation status. Primers for GAPDH were used to normalise data. Relative gene expression was set to vehicle controls or M0 expression unless otherwise stated.
For follow up experiments murine bone marrow derived monocytes were isolated, differentiated (L929 media) and polarised to a pro-inflammatory M1 phenotype (IFN-γ and LPS: for 6 or 24 hours), and co-treated with either E2 or E4 at the optimal concentration identified in THP1 cells (10^−7: FIG. 24). […] Experiments were then undertaken with murine bone marrow derived monocytes differentiated to macrophages with 30 ng/ml MCSF, as opposed to L929 conditioned media.

[3] = test system: murine dermal fibroblasts (MDF); experiment: qPCR gene expression in murine dermal fibroblasts; format: cell-based, mouse; details: for expression of ERα and ERβ: MDF, 10^−7M, qPCR
From the text: Primary human dermal fibroblasts (HDF) were isolated from abdominal skin or leg skin. Primary neonatal normal human epidermal keratinocytes (NHEK) were purchased (Lonza). Murine dermal fibroblasts (MDF), murine epidermal keratinocytes (MEK), murine peritoneal macrophages and murine bone marrow were isolated from C57/B16 (wt). NDb (Lepr+/−) or Db (Lepr−/−) mice. Fibroblasts were isolated and cultured in DMEM supplemented with 10% heat inactivated FBS. 1% penicillin/streptomycin and 1% amphotericin B. At least 4 days prior to performing assays cells were switched to DMEM supplemented with 5% charcoal-stripped FBS. Following treatments, human and murine macrophages were collected in Trizol and RNA isolated using the Trizol plus RNA isolation kit (Invitrogen. Thermo Fisher) according to the manufacturer's instructions. RNA was reverse transcribed to cDNA using GoScript reverse transcriptase (Promega). Quantitative real-time PCR was carried out using 2×Takyon SYBR Green mastermix and a CFX Connect thermocycler. Primers for ERα and ERβ were used to explore changes in ER expression after treatment of MEK and MDF with E2 and E4. To investigate the effect of E2 and E4 on MEK differentiation and the expression of ECM proteins by MDF, primers for. Snail, keratin-1 and fibronectin, collagen I. MMP-2 and MMP-9 were used. Primers for INOS. IL-1B and Tnf-α or Ccl17 were used to assess M1/M2 polarisation status. Primers for GAPDH were used to normalise data. Relative gene expression was set to vehicle controls or M0 expression unless otherwise stated. In vitro cultured murine fibroblasts were treated with either E2, E4, DPN or PPT at 10^−7M. As previously reported. […] Next, zymography was performed on cell supernatants from HDFs treated with either E2 or E4, to evaluate the effect of E2 and E4 on cell-derived MMP activity. […] The magnitude of the effect (and statistical significance) was greater in cells treated with E4. No MMP9 activity was detected in any treatment group. Finally, we explored the effect of E2 and E4 on murine fibroblast expression of extracellular matrix genes, specifically collagen 1 (Colal) and fibronectin (Fn1) (FIG. 20).

[4] = L929 differentiated BMDM, M1 polarised 6 or 24 hours, 10^−7, versus vehicle
[5] = L929 differentiated BMDM, M1 polarised
[6] = MCSF differentiated BMDM, M1 polarised
[7] = MCSF differentiated BMDM, M1 polarised, 10^−7M, versus vehicle
[8] = fibroblasts derived from diabetic (db/db) mice
[9] = fibroblasts derived from wild-type mice

Row | SMILES | expression of M1 markers (iNOS, IL1-β, Tnf-α) [1] | expression of M1 markers (iNOS, IL1-β, Tnf-α) [2, 4] | relative iNOS expression (M1 cell phenotype) [2, 5] | expression of M1 marker iNOS [2, 6] | expression of M1 markers (iNOS, IL1-β, Tnf-α) [2, 7] | expression of ERα and ERβ [3] | expression of collagen 1 and fibronectin (Fn1) [3, 8] | expression of collagen 1 and fibronectin (Fn1) [3, 9] | expression of IL1-β [1]
1 | C[C@]12CC[C@@H]3c4ccc(O)cc4CC[C@H]3[C@@H]1CC[C@@H]2O [Formulation E2, 17β-estradiol, reference compound] | strong trend towards reduced expression | trend toward decreased expression of a range of M1 markers | significantly dampened the M1 cell phenotype | statistically significant reduction in the M1 marker INOS | strong trend towards reduced expression | upregulated expression of both ERα and ERβ | trend towards increased expression of both Co1a1 and Fn1 | no effect was observed following treatment | 
2 | C[C@]12CC[C@@H]3c4ccc(O)cc4CC[C@H]3[C@@H]1[C@@H](O)[C@@H](O)[C@@H]2O [Formulation E4, 1,3,5 (10)-estratrien-3,15alpha, 16alpha, 17beta-tetrol] | strong trend towards reduced expression | trend toward decreased expression of a range of M1 markers | significantly dampened the M1 cell phenotype | statistically significant reduction in the M1 marker INOS | strong trend towards reduced expression | increases expression of both ERα and ERβ | trend towards increased expression of both Co1a1 and Fn1; also recorded: reached statistical significance for fibronectin (Fn1) | no effect was observed following treatment | achieved statistical significance
